Test [1] concerns the target T1, P450 2S1 (Homo sapiens, UniProt Q96SQ9).
T1 sequence (Q96SQ9 1-504): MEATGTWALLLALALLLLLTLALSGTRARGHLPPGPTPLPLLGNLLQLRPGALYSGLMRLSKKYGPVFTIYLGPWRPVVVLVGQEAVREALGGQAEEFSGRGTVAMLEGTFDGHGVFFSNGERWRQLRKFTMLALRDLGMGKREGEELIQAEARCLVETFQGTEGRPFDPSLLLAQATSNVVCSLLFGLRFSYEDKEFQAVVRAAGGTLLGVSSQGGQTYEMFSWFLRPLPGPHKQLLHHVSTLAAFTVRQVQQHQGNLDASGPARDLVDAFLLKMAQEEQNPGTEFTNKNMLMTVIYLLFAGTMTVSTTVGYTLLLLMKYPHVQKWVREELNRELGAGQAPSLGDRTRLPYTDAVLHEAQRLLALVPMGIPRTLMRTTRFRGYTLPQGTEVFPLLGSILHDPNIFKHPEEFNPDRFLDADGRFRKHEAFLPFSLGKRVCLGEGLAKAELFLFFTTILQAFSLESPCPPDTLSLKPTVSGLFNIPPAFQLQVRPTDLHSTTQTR
The class given is biochemical.

In test [2] the target is T1, P450 2S1. The class given is biochemical. The source holds these as a separate data set.
Test [3] addresses T1, P450 2S1. The class given is biochemical. The source holds these as a separate data set.
Test [4] addresses T1, P450 2S1. As to the kind of experiment: UV-visible difference spectral titration of purified P450 2S1. In kind it is binding.

For `ONc1ccc2c(c1)Cc1ccccc1-2` [2-HONH-fluorene], the “anaerobic reduction to 2-aminofluorene by purified P450 2S1, HPLC, minus-P450 co” value at P450 2S1 [1] is 0.34 ± 0.12 min⁻¹.
For the compound `ONc1ccc2ccccc2c1` [2-HONH-naphthalene], the “anaerobic reduction to 2-naphthylamine by purified P450 2S1, HPLC, minus-P450 co” value at P450 2S1 [2] stood at 2.4 ± 0.8 min⁻¹.
Turning to `ONc1ccc(-c2ccccc2)cc1` [4-HONH-biphenyl], at P450 2S1 [3], the “anaerobic reduction to 4-aminobiphenyl by purified P450 2S1, HPLC, minus-P450 co” value amounted to 0.18 ± 0.01 min⁻¹.
By Kd is commonly meant the free concentration of one partner at which half of the binding sites on the other are occupied at equilibrium, for simple one-to-one binding. Lower therefore signals higher affinity. Take `Cc1cc(-c2nc3cc(F)ccc3s2)ccc1NO` [HONH-5F 203, 2-(4-hydroxylamino-3-methylphenyl)-5-fluorobenzothiazole]: the dissociation constant (Kd) on P450 2S1 [4] worked out at 30 ± 10 µM.

The values are drawn from paper PMC3707514 (Chemical research in toxicology, 2013).
